# In patent publication US8795632B2, “Disease animal model for chronic pain” (Astellas Pharma Inc., priority 2008, dated 2014):
# Experiments:
# Type in all cases: in vivo, rat
# Sprague-Dawley rats [1] = experiment: Forced swimming test (immobility time) after repeated administration of reserpine; conditions: reserpine 1 mg/kg s.c. once a day for 3 days
# Description: Male Sprague-Dawley rats (7 weeks old, Japan SLC, Hamamatsu, Japan) were used as the animal. The forced swimming test was carried out by modifying the method of Porsolt et al. (1977) in the following manner. A soft wire equipped with a magnet (1 mm in diameter, 3 mm in length) was attached to both forelimbs of each animal, and the animal was allowed to swim in a cylindrical plastic water bath (20 cm in diameter, 45 cm in height) filled with water (24±1° C.) to a depth of 30 cm. In this test, the immobility time of each animal was measured using a forced swimming automatic measuring device (MicroAct Scratching Test version 1.06; Neuroscience, Tokyo, Japan) which detects movement of the forelimbs equipped with the magnet, through a coil around the cylinder.
# Influence of reserpine upon the immobility time in the forced swimming test was examined in accordance with the following protocol. […] All of the measured values were expressed as average value±standard error. Statistical difference of the measured values between the reserpine administration groups and the vehicle administration group in each test schedule was carried out by the Student's t-test. Probability value (P) of less than 5% was judged as statistically significant (P<0.05 was expressed as * in the graphs).
# Sprague-Dawley rats [2] = experiment: Cold sensitivity (acetone method) after reserpine single administration; conditions: reserpine 3 mg/kg single s.c.
# Description: Measurement of cold sensitivity was carried out in accordance with the method of Choi et al. (Choi et al., Pain, 59, 369-376, 1994). After adaptation of each rat to a wire mesh bottom cage for measurement, 50 μl of acetone was sprayed to the plantar surface of the right hind paw of the rat using a syringe for insulin injection. The number of reactions of the right hind paw (flinching, lifting and leg licking) occurred during 1 minute just after the spraying was measured and used as the index of cold sensitivity. At each point of time of the measurement, the acetone spraying was carried out 3 times at 5 minute intervals and the average was used as the measured vale. […]
# Influences of the reserpine single administration upon the muscle pressure pain threshold value, skin pain sensation threshold value, cold sensitivity and heat sensitivity were examined in accordance with the following protocol. […] The muscle pressure pain threshold value, skin pain sensation threshold value, cold sensitivity and heat sensitivity before the reserpine treatment (base lines) were measured and then they were divided into a solvent (0.5% acetic acid aqueous solution) group and a reserpine (3 mg/kg) group (the number of animals per group was 6). […]
# All of the measured values were expressed as average value±standard error. […]
# Sprague-Dawley rats [3] = experiment: Muscle pressure pain threshold value after repeated administration of reserpine; conditions: for time after reserpine final administration until which muscle pressure pain threshold value was statistically significantly low vs solvent group: reserpine 1 mg/kg s.c. once a day for 3 days
# Description: Measurement of muscle pressure pain threshold value was carried out in accordance with the method of Schafers et al. (Schafers M. et al., Pain, 104, 579-588, 2003). A pressure stimulus of gradually increasing to 250 g at the maximum was added to the rat right hind leg gastrocnemius muscle. […] The measurement was carried out 3 times at each point of time of the measurement, and the average was used as the measurement value. Measurement of the skin pain sensation threshold value was carried out in accordance with the method of Chaplan et al. (Chaplan et al., J. Neurosci. Methods, 53, 55-63, 1994). This was measured using a series of von Frey filaments having different diameters which may add a constant pressure. […] The von Frey filament was applied using the up and down method. That is, by firstly applying a filament of middle diameter, a filament having one rank smaller diameter was applied when the withdrawal reaction was observed or a filament having one rank larger diameter was applied when the withdrawal reaction was not observed. The skin pain sensation threshold value at each point of time of the measurement was calculated as a hind paw withdrawal reaction threshold value (g) using the calculation formula reported by Chaplan et al. (Chaplan et al., described above). Influences of reserpine upon the muscle pressure pain threshold value and skin pain sensation threshold value were examined by the following protocol. A total of 24 animals for each of male and female rats were used. After measuring muscle pressure pain threshold value and skin pain sensation threshold value before the reserpine treatment (base line), they were divided based on the reserpine administration doses into a solvent (0.5% acetic acid aqueous solution) group, a reserpine 0.1 mg/kg group, a 0.3 mg/kg group and a 1 mg/kg group (the number of animals per one group was 6). The solvent or reserpine was subcutaneously administered on the back of the rats of each group once a day for 3 days. All of the administration volume of the solvent or reserpine was set to 1 ml per 1 kg body weight of each animal. After final administration of the solvent or reserpine, the muscle pressure pain threshold value and skin pain sensation threshold value of each rat were measured 1, 3, 5, 7, 10, 14 and 21 days thereafter.
# All of the measured values were expressed as average value±standard error. Statistical significance test of the measured values between the reserpine administration groups and the solvent administration group at each point of time was carried out by a two-way analysis of variance and the Bonferroni method. Probability value (P) of less than 5% was judged as statistically significant (P<0.05 was expressed as * in the graphs).
smiles,measurement,setting,value
COC(=O)[C@H]1[C@H]2C[C@@H]3c4[nH]c5cc(OC)ccc5c4CCN3C[C@H]2C[C@@H](OC(=O)c2cc(OC)c(OC)c(OC)c2)[C@@H]1OC [reserpine],immobility time in forced swimming test vs vehicle administration group,"Sprague-Dawley rats [1]; after 3, 5, 7 and 14 days of the final administration (P=0.0007, P=0.004, P<0.0001, P=0.0008)",significant increase
same,immobility time in forced swimming test vs vehicle administration group,"Sprague-Dawley rats [1]; after 1 day of the final administration (P=0.625, Student's t-test)",Significant increase in the immobility time by the reserpine administration was not found
same,cold sensitivity: number of reactions,"Sprague-Dawley rats [2]; after 2, 3, 5, 7 and 10 days",significantly increased
same,cold sensitivity: number of reactions,Sprague-Dawley rats [2]; within 24 hours after administration,did not show significant increase
same,time after reserpine final administration until which muscle pressure pain threshold value was statistically significantly low vs solvent group,Sprague-Dawley rats [3]; female rats,7 days
same,muscle pressure pain threshold value,"Sprague-Dawley rats [3]; male and female rats, reserpine 0.1, 0.3, 1 mg/kg s.c. once a day for 3 days, two-way analysis of variance vs solvent",significantly reduced
same,time after reserpine final administration until which muscle pressure pain threshold value was statistically significantly low vs solvent group,Sprague-Dawley rats [3]; male rats,10 days
same,muscle pressure pain threshold value,"Sprague-Dawley rats [3]; reserpine 1 mg/kg group, s.c. once a day for 3 days",markedly reduced
same,duration of chronic muscle pain and chronic tactile allodynia after administration,Sprague-Dawley rats [3]; reserpine administered to a mammal (summary statement),≥ 1 week
